# Test results published in paper PMC8330742, “New benzothieno[2,3-c]pyridines as non-steroidal CYP17 inhibitors: design, synthesis, anticancer screening, apoptosis induction, and in silico ADME profile studies” (Journal of Enzyme Inhibition and Medicinal Chemistry, 2021).
# Assays:
# MALME-3M = assay: NCI-60 SRB screen; type: cell-based, human; conditions: Homo sapiens, single dose 10^−5 M, read-out: Growth inhibition (%)
# HCT-15 = assay: NCI-60 SRB screen; type: cell-based, human; conditions: Homo sapiens; HCT-15; single dose 10^−5 M; read-out: Growth inhibition (%)
# SK-MEL-2 = assay: NCI-60 SRB screen; type: cell-based, human; conditions: Homo sapiens; SK-MEL-2; single dose 10^−5 M; read-out: Growth inhibition (%)
# SN12C = assay: NCI-60 SRB screen; type: cell-based, human; conditions: Homo sapiens, SN12C; SN 12 C; single dose 10^−5 M; read-out: Growth inhibition (%)
# OVCAR-3 = assay: NCI-60 SRB screen; type: cell-based, human; conditions: Homo sapiens; OVCAR-3; single dose 10^−5 M; read-out: Growth inhibition (%)
# A549/ATCC = assay: NCI-60 SRB screen; type: cell-based, human; conditions: Homo sapiens, single dose 10^−5 M, read-out: Growth inhibition (%)
# HCC-2998 = assay: NCI-60 SRB screen; type: cell-based, human; conditions: Homo sapiens; HCC-2998; single dose 10^−5 M; read-out: Growth inhibition (%)
# ACHN = assay: NCI-60 SRB screen; type: cell-based; conditions: Homo sapiens, single dose 10^−5 M, read-out: Growth inhibition (%)
# HT-29 = assay: NCI-60 SRB screen; type: cell-based; conditions: Homo sapiens; HT-29; single dose 10^−5 M; read-out: Growth inhibition (%)
# MOLT-4 = assay: NCI-60 SRB screen; type: cell-based; conditions: Homo sapiens; MOLT-4; single dose 10^−5 M; read-out: Growth inhibition (%)
# NCI-H460 = assay: NCI-60 SRB screen; type: cell-based, human; conditions: Homo sapiens; NCI-H460; single dose 10^−5 M; read-out: Growth inhibition (%)
# KM12 = assay: NCI-60 SRB screen; type: cell-based, human; conditions: Homo sapiens; KM12; single dose 10^−5 M; read-out: Growth inhibition (%)
# HCT-116 = assay: NCI-60 SRB screen; type: cell-based, human; conditions: Homo sapiens; HCT-116; single dose 10^−5 M; read-out: Growth inhibition (%)
# SF-268 = assay: NCI-60 SRB screen; type: cell-based, human; conditions: Homo sapiens; SF-268; single dose 10^−5 M; read-out: Growth inhibition (%)
# CCRF-CEM = assay: NCI-60 SRB screen; type: cell-based; conditions: Homo sapiens, single dose 10^−5 M, read-out: Growth inhibition (%)
# UACC-62 = assay: NCI-60 SRB screen; type: cell-based, human; conditions: Homo sapiens; UACC-62; single dose 10^−5 M; read-out: Growth inhibition (%)
# HOP-62 = assay: NCI-60 SRB screen; type: cell-based, human; conditions: Homo sapiens; HOP-62; single dose 10^−5 M; read-out: Growth inhibition (%)
# SR = assay: NCI-60 SRB screen; type: cell-based; conditions: Homo sapiens, single dose 10^−5 M, read-out: Growth inhibition (%)
# SF-295 = assay: NCI-60 SRB screen; type: cell-based, human; conditions: Homo sapiens; SF-295; single dose 10^−5 M; read-out: Growth inhibition (%)
# NCI-H322M = assay: NCI-60 SRB screen; type: cell-based, human; conditions: Homo sapiens, single dose 10^−5 M, read-out: Growth inhibition (%)
# CAKI-1 = assay: NCI-60 SRB screen; type: cell-based, human; conditions: Homo sapiens; CAKI-1; single dose 10^−5 M; read-out: Growth inhibition (%)
# MDA-MB-435 = assay: NCI-60 SRB screen; type: cell-based; conditions: Homo sapiens, MDA-MB-435, read-out: Growth inhibition (%)
# UO-31 = assay: NCI-60 SRB screen; type: cell-based, human; conditions: Homo sapiens; UO-31; single dose 10^−5 M; read-out: Growth inhibition (%)
# HOP-92 = assay: NCI-60 SRB screen; type: cell-based, human; conditions: Homo sapiens; HOP-92; single dose 10^−5 M; read-out: Growth inhibition (%)
# OVCAR-8 = assay: NCI-60 SRB screen; type: cell-based, human; conditions: Homo sapiens; OVCAR-8; single dose 10^−5 M; read-out: Growth inhibition (%)
# RXF 393 = assay: NCI-60 SRB screen; type: cell-based, human; conditions: Homo sapiens; RXF 393; single dose 10^−5 M; read-out: Growth inhibition (%)
# NCI-H522 = assay: NCI-60 SRB screen; type: cell-based, human; conditions: Homo sapiens; NCI-H522; single dose 10^−5 M; read-out: Growth inhibition (%)
# OVCAR-4 = assay: NCI-60 SRB screen; type: cell-based, human; conditions: Homo sapiens; OVCAR-4; single dose 10^−5 M; read-out: Growth inhibition (%)
# [1] = system: panel of 60 cancer cell lines; assay: NCI-60 SRB screen, mean or range over the panel; type: cell-based, human; conditions: Homo sapiens; mean over the cell lines; single dose 10^−5 M; read-out: Mean growth inhibition (%)
# LOX IMVI = assay: NCI-60 SRB screen; type: cell-based, human; conditions: Homo sapiens, single dose 10^−5 M, read-out: Growth inhibition (%)
# TK-10 = assay: NCI-60 SRB screen; type: cell-based, human; conditions: Homo sapiens; TK-10; single dose 10^−5 M; read-out: Growth inhibition (%)
# SK-MEL-5 = assay: NCI-60 SRB screen; type: cell-based, human; conditions: Homo sapiens; SK-MEL-5; single dose 10^−5 M; read-out: Growth inhibition (%)
# SK-MEL-28 = assay: NCI-60 SRB screen; type: cell-based; conditions: Homo sapiens; SK-MEL-28; single dose 10^−5 M; read-out: Growth inhibition (%)
# 786-0 = assay: NCI-60 SRB screen; type: cell-based; conditions: Homo sapiens; 786-0; single dose 10^−5 M; read-out: Growth inhibition (%)
# M14 = assay: NCI-60 SRB screen; type: cell-based, human; conditions: Homo sapiens; M14; single dose 10^−5 M; read-out: Growth inhibition (%)
# UACC-257 = assay: NCI-60 SRB screen; type: cell-based, human; conditions: Homo sapiens, UACC-257; UACC-275 (so in the source); single dose 10^−5 M; read-out: Growth inhibition (%)
# HL-60(TB) = assay: NCI-60 SRB screen; type: cell-based, human; conditions: Homo sapiens; HL-60 (TB); single dose 10^−5 M; read-out: Growth inhibition (%)
# NCI/ADR-RES = assay: NCI-60 SRB screen; type: cell-based, human; conditions: Homo sapiens, single dose 10^−5 M, read-out: Growth inhibition (%)
# COLO 205 = assay: NCI-60 SRB screen; type: cell-based, human; conditions: Homo sapiens; COLO 205; single dose 10^−5 M; read-out: Growth inhibition (%)
# EKVX = assay: NCI-60 SRB screen; type: cell-based, human; conditions: Homo sapiens, single dose 10^−5 M, read-out: Growth inhibition (%)
# IGROV1 = assay: NCI-60 SRB screen; type: cell-based, human; conditions: Homo sapiens, IGROV-1; IGROV1; single dose 10^−5 M; read-out: Growth inhibition (%)
# NCI-H23 = assay: NCI-60 SRB screen; type: cell-based, human; conditions: Homo sapiens; NCI-H23; single dose 10^−5 M; read-out: Growth inhibition (%)
# SW-620 = assay: NCI-60 SRB screen; type: cell-based; conditions: Homo sapiens; SW-620; single dose 10^−5 M; read-out: Growth inhibition (%)
# K-562 = assay: NCI-60 SRB screen; type: cell-based, human; conditions: Homo sapiens, K562; K-562; single dose 10^−5 M; read-out: Growth inhibition (%)
# NCI-H226 = assay: NCI-60 SRB screen; type: cell-based, human; conditions: Homo sapiens; NCI-H226; single dose 10^−5 M; read-out: Growth inhibition (%)
structure (smiles),measurement,setting,value
"CCN1CCN(C2C(=O)NC(c3cccc([N+](=O)[O-])c3)c3sc4c(F)cccc4c32)CC1 (stereo not drawn) [Compound 6a, 4-(4-Ethylpiperazin-1-yl)-8-fluoro-1-(3-nitrophenyl)-1,2-dihydro[1]benzo thieno[2,3-c]pyridin-3(4H)-one]",inhibition at 10 µM,MALME-3M,-3.44%
same,inhibition at 10 µM,HCT-15,-7.17%
same,inhibition at 10 µM,SK-MEL-2,-13.3%
same,inhibition at 10 µM,SN12C,2.15%
same,inhibition at 10 µM,OVCAR-3,0.35%
same,inhibition at 10 µM,A549/ATCC,-7.34%
same,inhibition at 10 µM,HCC-2998,-18.1%
same,inhibition at 10 µM,ACHN,6.81%
same,inhibition at 10 µM,HT-29,-2.32%
same,inhibition at 10 µM,MOLT-4,9.9%
same,inhibition at 10 µM,NCI-H460,0.82%
same,inhibition at 10 µM,KM12,-0.94%
same,inhibition at 10 µM,HCT-116,6.68%
same,inhibition at 10 µM,SF-268,7.67%
same,inhibition at 10 µM,CCRF-CEM,-2.46%
same,inhibition at 10 µM,UACC-62,8.9%
same,inhibition at 10 µM,HOP-62,8.57%
same,inhibition at 10 µM,SR,8.6%
same,inhibition at 10 µM,SF-295,-3.39%
same,inhibition at 10 µM,NCI-H322M,0.49%
same,inhibition at 10 µM,CAKI-1,18.4%
same,inhibition at 10 µM,MDA-MB-435,-2.64%
same,inhibition at 10 µM,UO-31,35.8%
same,inhibition at 10 µM,HOP-92,-1.02%
same,inhibition at 10 µM,OVCAR-8,2.02%
same,inhibition at 10 µM,RXF 393,-24%
same,inhibition at 10 µM,NCI-H522,0.67%
same,inhibition at 10 µM,OVCAR-4,-6.65%
same,inhibition at 10 µM,[1],-0.71%
same,inhibition at 10 µM,LOX IMVI,-2.53%
same,inhibition at 10 µM,TK-10,-51.9%
same,inhibition at 10 µM,SK-MEL-5,-1.71%
same,inhibition at 10 µM,SK-MEL-28,-13%
same,inhibition at 10 µM,786-0,-15%
same,inhibition at 10 µM,M14,-1.65%
same,inhibition at 10 µM,UACC-257,-14.7%
same,inhibition at 10 µM,HL-60(TB),-2%
same,inhibition at 10 µM,NCI/ADR-RES,-2.46%
same,inhibition at 10 µM,COLO 205,-13.8%
same,inhibition at 10 µM,EKVX,-2.24%
same,inhibition at 10 µM,IGROV1,16.4%
same,inhibition at 10 µM,NCI-H23,-1.88%
same,inhibition at 10 µM,SW-620,5.15%
same,inhibition at 10 µM,K-562,11%
same,inhibition at 10 µM,NCI-H226,10%
